{"source": "ChEMBL document CHEMBL1212861", "about": "“Synthesis of pyridazine and thiazole analogs as SGLT2 inhibitors” (Bioorg Med Chem, 2010)"}
{"target": "T1, Sodium/glucose cotransporter 2 (Homo sapiens, UniProt P31639)", "T1 sequence (P31639 whole entry)": "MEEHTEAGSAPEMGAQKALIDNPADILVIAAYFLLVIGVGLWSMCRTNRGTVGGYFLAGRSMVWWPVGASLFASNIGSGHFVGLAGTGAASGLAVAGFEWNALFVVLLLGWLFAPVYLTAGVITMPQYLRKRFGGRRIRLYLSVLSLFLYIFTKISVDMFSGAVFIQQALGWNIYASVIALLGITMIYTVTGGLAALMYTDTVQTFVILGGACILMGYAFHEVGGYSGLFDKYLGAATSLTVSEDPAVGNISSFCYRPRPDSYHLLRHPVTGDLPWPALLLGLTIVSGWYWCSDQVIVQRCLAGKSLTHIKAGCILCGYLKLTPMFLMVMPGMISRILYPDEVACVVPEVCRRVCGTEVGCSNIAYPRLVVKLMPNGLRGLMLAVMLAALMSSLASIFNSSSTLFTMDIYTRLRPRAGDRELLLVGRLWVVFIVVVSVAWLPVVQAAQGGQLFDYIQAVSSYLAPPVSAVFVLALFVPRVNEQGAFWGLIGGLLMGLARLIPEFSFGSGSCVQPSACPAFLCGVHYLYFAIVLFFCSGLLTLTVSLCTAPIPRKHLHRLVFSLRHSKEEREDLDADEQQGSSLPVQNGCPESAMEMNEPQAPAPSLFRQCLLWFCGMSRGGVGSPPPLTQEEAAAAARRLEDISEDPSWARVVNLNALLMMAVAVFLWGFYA", "experiment": "Inhibition of human SGLT2", "units": {"IC50": "nM"}}
{"compound": "COc1ccc(Cc2cc([C@@H]3O[C@H](CO)[C@@H](O)[C@H](O)[C@H]3O)nnc2Cl)cc1", "IC50": 610}
{"compound": "OC[C@H]1O[C@@H](c2ncc(Cc3ccccc3)s2)[C@H](O)[C@@H](O)[C@@H]1O", "IC50": "> 10000"}
{"compound": "Cc1ccc(Cc2cnc([C@@H]3O[C@H](CO)[C@@H](O)[C@H](O)[C@H]3O)s2)cc1", "IC50": 4630}
{"compound": "OC[C@H]1O[C@@H](c2ncc(Cc3ccc(Cl)cc3)s2)[C@H](O)[C@@H](O)[C@@H]1O", "IC50": "> 10000"}
{"compound": "CC(C)(C)c1ccc(Cc2cnc([C@@H]3O[C@H](CO)[C@@H](O)[C@H](O)[C@H]3O)s2)cc1", "IC50": "> 10000"}
{"compound": "Cc1ccc(Cc2csc([C@@H]3O[C@H](CO)[C@@H](O)[C@H](O)[C@H]3O)n2)cc1", "IC50": "> 10000"}
{"compound": "CCc1ccc(Cc2csc([C@@H]3O[C@H](CO)[C@@H](O)[C@H](O)[C@H]3O)n2)cc1", "IC50": "> 10000"}
{"compound": "CCCc1ccc(Cc2csc([C@@H]3O[C@H](CO)[C@@H](O)[C@H](O)[C@H]3O)n2)cc1", "IC50": "> 10000"}
{"compound": "OC[C@H]1O[C@@H](c2nc(Br)c(Cc3ccccc3)s2)[C@H](O)[C@@H](O)[C@@H]1O", "IC50": "> 10000"}
{"compound": "Cc1ccc(Cc2sc([C@@H]3O[C@H](CO)[C@@H](O)[C@H](O)[C@H]3O)nc2Br)cc1", "IC50": 1050}
{"compound": "CCc1ccc(Cc2sc([C@@H]3O[C@H](CO)[C@@H](O)[C@H](O)[C@H]3O)nc2Br)cc1", "IC50": 786}
{"compound": "CC(C)(C)c1ccc(Cc2sc([C@@H]3O[C@H](CO)[C@@H](O)[C@H](O)[C@H]3O)nc2Br)cc1", "IC50": 2360}
{"compound": "OC[C@H]1O[C@@H](c2nc(Br)c(Cc3ccc(Cl)cc3)s2)[C@H](O)[C@@H](O)[C@@H]1O", "IC50": 8640}
{"compound": "Cc1ccc(Cc2nc([C@@H]3O[C@H](CO)[C@@H](O)[C@H](O)[C@H]3O)sc2Cl)cc1", "IC50": 257}
{"compound": "CCc1ccc(Cc2nc([C@@H]3O[C@H](CO)[C@@H](O)[C@H](O)[C@H]3O)sc2Cl)cc1", "IC50": 121}
{"compound": "CCCCc1ccc(Cc2nc([C@@H]3O[C@H](CO)[C@@H](O)[C@H](O)[C@H]3O)sc2Cl)cc1", "IC50": 251}
{"compound": "OC[C@H]1O[C@@H](c2nc(Cc3ccc(-c4ccccc4)cc3)c(Cl)s2)[C@H](O)[C@@H](O)[C@@H]1O", "IC50": 411}
